Results from ChEMBL document CHEMBL1152879, “Discovery of GlyT1 inhibitors with improved pharmacokinetic properties” (Bioorg Med Chem Lett, 2009).
Active and inactive are the calls of the source. No cut-off for these calls is given here.

Tests used:
[1] = biological target: T1, Sodium- and chloride-dependent taurine transporter (Homo sapiens, UniProt P31641); experiment: Inhibition of taurine transporter
T1 sequence (P31641 whole entry): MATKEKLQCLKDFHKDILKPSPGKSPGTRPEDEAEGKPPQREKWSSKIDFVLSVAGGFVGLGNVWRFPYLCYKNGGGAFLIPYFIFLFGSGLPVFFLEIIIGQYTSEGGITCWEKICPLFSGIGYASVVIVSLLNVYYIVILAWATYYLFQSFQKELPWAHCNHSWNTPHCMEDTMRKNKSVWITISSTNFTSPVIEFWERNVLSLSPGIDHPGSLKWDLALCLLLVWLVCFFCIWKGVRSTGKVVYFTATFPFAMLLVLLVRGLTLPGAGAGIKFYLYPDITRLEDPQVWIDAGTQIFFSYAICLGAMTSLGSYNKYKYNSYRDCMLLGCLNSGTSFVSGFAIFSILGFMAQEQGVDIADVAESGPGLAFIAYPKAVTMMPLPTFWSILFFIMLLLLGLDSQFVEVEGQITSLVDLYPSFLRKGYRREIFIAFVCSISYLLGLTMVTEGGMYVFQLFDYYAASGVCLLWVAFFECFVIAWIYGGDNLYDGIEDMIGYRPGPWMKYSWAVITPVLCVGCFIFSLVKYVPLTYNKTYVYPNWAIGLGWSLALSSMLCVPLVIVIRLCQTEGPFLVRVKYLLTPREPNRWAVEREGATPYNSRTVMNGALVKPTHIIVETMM

[2] = biological target: T2, Sodium- and chloride-dependent glycine transporter 2 (Homo sapiens, UniProt Q9Y345); experiment: Inhibition of Glyt2
T2 sequence (Q9Y345 whole entry): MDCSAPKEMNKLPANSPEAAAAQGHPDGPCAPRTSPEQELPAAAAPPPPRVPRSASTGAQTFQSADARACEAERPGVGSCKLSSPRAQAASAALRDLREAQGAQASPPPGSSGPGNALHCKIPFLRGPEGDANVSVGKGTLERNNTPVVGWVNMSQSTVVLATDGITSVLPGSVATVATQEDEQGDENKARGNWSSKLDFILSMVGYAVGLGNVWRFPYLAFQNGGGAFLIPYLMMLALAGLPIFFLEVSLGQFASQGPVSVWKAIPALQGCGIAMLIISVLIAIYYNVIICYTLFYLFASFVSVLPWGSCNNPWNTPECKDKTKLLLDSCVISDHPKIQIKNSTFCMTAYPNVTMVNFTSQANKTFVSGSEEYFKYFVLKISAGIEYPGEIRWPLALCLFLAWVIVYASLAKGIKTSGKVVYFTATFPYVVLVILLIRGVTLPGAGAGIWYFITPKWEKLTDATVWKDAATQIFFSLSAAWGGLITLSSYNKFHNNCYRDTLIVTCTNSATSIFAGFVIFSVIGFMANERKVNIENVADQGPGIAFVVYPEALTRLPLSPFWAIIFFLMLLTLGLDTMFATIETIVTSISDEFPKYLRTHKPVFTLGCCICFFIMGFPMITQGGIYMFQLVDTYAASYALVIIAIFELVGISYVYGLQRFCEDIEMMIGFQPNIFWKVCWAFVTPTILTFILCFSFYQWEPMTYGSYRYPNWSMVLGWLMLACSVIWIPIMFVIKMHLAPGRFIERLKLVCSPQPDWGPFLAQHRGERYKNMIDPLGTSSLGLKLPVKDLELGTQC

[3] = Clearance in dog at 0.25 mg/kg, iv by cassette dosing; assay type: ADME, organism-based, Canis lupus familiaris; set-up: dose 0.25 mg/kg, route intravenous; details: in vivo
[4] = biological target: T3, Sodium- and chloride-dependent glycine transporter 1 (Homo sapiens, UniProt P48067); experiment: (§1) Inhibition of Glyt1
T3 sequence (P48067 whole entry): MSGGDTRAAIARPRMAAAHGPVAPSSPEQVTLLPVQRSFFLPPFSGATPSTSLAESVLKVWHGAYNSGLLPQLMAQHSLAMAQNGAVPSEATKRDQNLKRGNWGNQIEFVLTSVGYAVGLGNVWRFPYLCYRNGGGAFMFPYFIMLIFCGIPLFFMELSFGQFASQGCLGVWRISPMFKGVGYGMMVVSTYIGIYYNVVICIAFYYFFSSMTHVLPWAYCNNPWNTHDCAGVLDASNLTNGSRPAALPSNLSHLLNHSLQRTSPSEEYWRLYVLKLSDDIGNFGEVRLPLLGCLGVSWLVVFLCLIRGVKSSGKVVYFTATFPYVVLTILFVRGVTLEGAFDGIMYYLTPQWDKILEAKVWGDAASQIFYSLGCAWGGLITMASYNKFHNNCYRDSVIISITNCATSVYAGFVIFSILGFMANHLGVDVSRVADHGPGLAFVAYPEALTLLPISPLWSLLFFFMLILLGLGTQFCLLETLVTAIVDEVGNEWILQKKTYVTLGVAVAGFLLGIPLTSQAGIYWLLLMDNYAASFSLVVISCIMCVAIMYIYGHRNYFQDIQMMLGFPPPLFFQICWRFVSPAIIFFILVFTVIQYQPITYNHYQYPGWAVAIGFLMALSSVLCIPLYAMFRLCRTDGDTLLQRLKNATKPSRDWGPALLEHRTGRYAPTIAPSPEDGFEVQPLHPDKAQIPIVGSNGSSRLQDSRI

[5] = Half life in dog at 0.25 mg/kg, iv by cassette dosing; assay type: ADME, organism-based, Canis lupus familiaris; set-up: dose 0.25 mg/kg, route intravenous; details: in vivo
[6] = Clearance in dog at 0.5 mg/kg, iv and 1 mg/kg, po; assay type: ADME, organism-based, Canis lupus familiaris; details: in vivo
MDR1 (human) = experiment: Passive permeability from apical to basolateral side of pig LLC-PK1 cells expressing human MDR1; assay type: ADME, cell-based, Sus scrofa; details: read-out: permeability
[7] = Volume of distribution at steady state in dog at 0.5 mg/kg, iv and 1 mg/kg, po; assay type: ADME, organism-based, Canis lupus familiaris; details: in vivo, read-out: Vdss
[8] = Oral bioavailability in dog at 1 mg/kg; assay type: ADME, organism-based, Canis lupus familiaris; details: in vivo
[9] = Half life in dog at 0.5 mg/kg, iv and 1 mg/kg, po; assay type: ADME, organism-based, Canis lupus familiaris; details: in vivo
Rattus norvegicus [10] = experiment: In vivo plasma occupancy by displacement of [35S]ACPPB from rat GlyT1 in po dosed rat brain; assay type: functional
[11] = biological target: T4, Sodium- and chloride-dependent glycine transporter 1 (Homo sapiens) (UniProt P48067); experiment: as §1
T4 sequence (whole entry): T3 sequence (P48067 whole entry)

Rattus norvegicus [12] = organism: Rattus norvegicus; experiment: Activity of rat P-glycoprotein
Homo sapiens = organism: Homo sapiens; experiment: Activity of human P-glycoprotein

| SMILES | IC50 [1] | IC50 [2] | clearance [3] | IC50 [4] | half-life [5] | also measured |
| --- | --- | --- | --- | --- | --- | --- |
| CCCS(=O)(=O)N1CCC(CCOC)(CNC(=O)c2ccc(Cl)cc2Cl)CC1 | > 30 µM | > 30 µM | > 15 mL/min/kg | 0.0265 µM | < 2 h | – |
| CCCS(=O)(=O)N1CCC(CNC(=O)c2ccc(Cl)cc2Cl)(C2CCCCC2OC(C)=O)CC1 (stereo unspecified) | – | – | > 15 mL/min/kg | 0.0177 µM | < 2 h | – |
| CCS(=O)(=O)N1CCC(CNC(=O)c2ccc(Cl)cc2Cl)(c2ccccn2)CC1 | > 30 µM | > 30 µM | 1.4 mL/min/kg | 0.057 µM | 8 h | – |
| CCS(=O)(=O)N1CCC(c2ccccn2)([C@H](C)NC(=O)c2ccc(Cl)cc2Cl)CC1 | – | – | 3.6 mL/min/kg | – | – | clearance [6]: 3.5 mL/min/kg; Papp A→B (MDR1 (human)): 37 ×10⁻⁶ cm/s; Vd [7]: 1.37 L/kg; bioavailability [8]: 25%; half-life [9]: 5 h; Occ50 (Rattus norvegicus [10]): 150 nM; Activity [11]: 11 nM; Activity (Rattus norvegicus [12]): inactive; Activity (Homo sapiens): inactive |
| O=C(NCC1(c2ccccn2)CCN(S(=O)(=O)CC(F)(F)F)CC1)c1ccc(Cl)cc1Cl | – | – | 2.5 mL/min/kg | 1.07 µM | 4.9 h | – |
| CC(C)S(=O)(=O)N1CCC(CNC(=O)c2ccc(Cl)cc2Cl)(c2ccccn2)CC1 | – | – | – | 0.22 µM | – | – |
| O=C(NCC1(c2ccccn2)CCN(S(=O)(=O)C2CC2)CC1)c1ccc(Cl)cc1Cl | > 30 µM | > 30 µM | 1.7 mL/min/kg | 0.2 µM | 7.6 h | – |
| CCCS(=O)(=O)N1CCC(CNC(=O)c2ccc(Cl)cc2Cl)(c2ccccn2)CC1 | > 30 µM | > 30 µM | 15 mL/min/kg | – | 2.3 h | – |
| CCS(=O)(=O)N1CCC(CNC(=O)c2ccc(Cl)cc2Cl)(CC2CC2)CC1 | – | – | 0.84 mL/min/kg | – | – | clearance [6]: 2.3 mL/min/kg; Vd [7]: 2.1 L/kg; bioavailability [8]: 38%; half-life [9]: 11.8 h; Occ50 (Rattus norvegicus [10]): 260 nM; Activity (Rattus norvegicus [12]): inactive; Activity (Homo sapiens): inactive |
| CC(O)CS(=O)(=O)N1CCC(CNC(=O)c2ccc(Cl)cc2Cl)(c2ccccn2)CC1 (stereo unspecified) | – | – | – | 0.086 µM | – | – |

Now from value to molecule, other results behind:

| IC50 [1] | IC50 [2] | clearance [3] | IC50 [4] | half-life [5] | SMILES | also measured |
| --- | --- | --- | --- | --- | --- | --- |
| > 30 µM | > 30 µM | > 15 mL/min/kg | 0.03 µM | < 2 h | CCCS(=O)(=O)N1CCC(CNC(=O)c2ccc(Cl)cc2Cl)(CC2CC2)CC1 | – |
| – | – | – | > 5 µM | – | O=C(NCC1(c2ccccn2)CCN(S(=O)(=O)C(F)(F)F)CC1)c1ccc(Cl)cc1Cl | – |
| > 30 µM | > 30 µM | – | 0.0097 µM | – | CC(F)CS(=O)(=O)N1CCC(CNC(=O)c2ccc(Cl)cc2Cl)(c2ccccn2)CC1 (stereo unspecified) | – |
| – | – | 11.8 mL/min/kg | 0.077 µM | 1.9 h | CN(C)S(=O)(=O)N1CCC(CNC(=O)c2ccc(Cl)cc2Cl)(c2ccccn2)CC1 | – |
| > 30 µM | > 30 µM | 1 mL/min/kg | 0.3 µM | 8.4 h | CS(=O)(=O)N1CCC(CNC(=O)c2ccc(Cl)cc2Cl)(c2ccccn2)CC1 | – |
| > 30 µM | > 30 µM | > 15 mL/min/kg | 0.0028 µM | < 2 h | CCCS(=O)(=O)N1CCC(CNC(=O)c2ccc(Cl)cc2Cl)(C2CCCCC2O)CC1 (stereo unspecified) | – |
| – | – | > 15 mL/min/kg | 0.0381 µM | < 2 h | CCCS(=O)(=O)N1CCC(CNC(=O)c2ccc(Cl)cc2Cl)(N2CCC2)CC1 | – |
| – | – | – | 0.12 µM | – | CCCCS(=O)(=O)N1CCC(CNC(=O)c2ccc(Cl)cc2Cl)(c2ccccn2)CC1 | – |
| > 30 µM | > 30 µM | > 15 mL/min/kg | 0.0029 µM | < 2 h | CCCS(=O)(=O)N1CCC(CNC(=O)c2ccc(Cl)cc2Cl)(CC2CCCCO2)CC1 (stereo unspecified) | – |
